Several values for one entry are separate records, joined by “and”; a condition that tells them apart may be missing. Equal values may be shown once. Read-outs that look alike come from different tables or passages of the source.

This note sets out measurements from patent publication US5001048A (priority 1987, dated 1991).

Assay [1] concerns acetylcholine receptor (AChR). Format: binding, Electrophorus electricus. Conditions: for % Activity Increase: 24 to 48 hours after immobilization, over nondetergent containing membrane; for stabilization of AChR activity in the membrane (in words): retention of binding activity at immobilization and after storage.
Assay [2] relates to immobilized acetylcholine receptor (AChR). In words: AChR sensor alternating current impedance response to agent challenge. The assay is classed as binding, Electrophorus electricus. Conditions: for AChR sensor response: 50 to 100 uL. Here is the method:
(§1) All measurements utilized wetted biosensors (i.e., sensors presoaked in deionized water and test buffer). The biosensor was washed with deionized water to a constant output value (that is, it maintained the same impedance value upon further washing). This established a baseline value for the sensor in absence of ligand. Test samples in buffer were then added. Output (changes in impedance, etc) was recorded as a function of time.
(§2) Two approaches were used to evaluate the functionality of the two types (i.e., receptor and antibody-based) of biosensors. In the first approach, measurements were taken sequentially on control and test sensors ("chips") and compared. This approach can be done quickly for rapid evaluation of a sensor (FIGS. 1 and 3). However, background (i.e., non specific binding to the sensor) is not subtracted out automatically. […] This allows for simultaneous challenge (i.e., challenge of both the control and the receptor-containing biosensor at the same time) and background is automatically subtracted out.
(§3) In the case in which sequential measurements were used, alternating current measurements were made on the sensors, and changes were recorded in impedance (measured in ohms), capacitance or phase angle. Samples in volumes of 5 to 200 microliters (ul) were analyzed; […].
(§4) Typically, a sample to be tested (i.e., one thought to contain an analyte of interest) was applied to a sensor which had been previously equilibrated with deionized water and readings of output impedance from the sensor were taken. Equilibration to constant readings occurred within 2 to 10 sec. Readings remained stable for at least the 5 minutes during which the output was routinely monitored. The sensor was then washed with deionized water to background equilibrium, sample was again added and readings were taken. In each case 2 to 5 cycles were carried out in this way.

Assay [3] in a line: Control sensor (same formulation, no AChR added) impedance response to agent challenge. Conditions: 50 to 100 uL. Here is the method:
as §1, §2, §3, §4
^b Control sensor is the same formulation as AChR but with no AChR

Consider `CCCCCCCCCCCCCCCC[N+](C)(C)C.[Br-]` [CTAB, cetyltrimethylammonium bromide], for which the “% Activity Increase” value stood at 4% in assay [1] (detergent 0.5% by volume), 18% in assay [1] (detergent 1.0% by volume) and 28% in assay [1] (detergent 2.0% by volume).
For the compound `C[C@H](CCC(=O)O)[C@H]1CC[C@H]2[C@@H]3[C@H](O)C[C@@H]4C[C@H](O)CC[C@]4(C)[C@H]3C[C@H](O)[C@]12C` [Sodium cholate, sodium cholate], the entries for the “% Activity Increase” value in assay [1] (detergent 1.0% by volume) and in assay [1] (detergent 2.0% by volume) were 110% and 145%, respectively. Besides, in assay [1], the “stabilization of AChR activity in the membrane (in words)” value is given as “best stabilizing detergents”.
On to `CCCCCCCC[N+](C)(C)CCCS(=O)(=O)[O-]` [Zwittergent ™ 3-08, N-octyl-N-N dimethyl-3-amino-1-propane sulfonate], for which the “% Activity Increase” value in assay [1] (detergent 1.0% by volume) was 55% and 30%; in assay [1] (detergent 2.0% by volume) it was 55% and 38%.
For glucose, the “% Change of AChR sensor with respect to control” value in assay [2] (agent 0.5 ug/ml) is given as 3%; in assay [2] (agent 5 ug/ml) it was 0%; in assay [2] (agent 50 ug/ml) it was 6%; in assay [2] (agent 500 ug/ml) it was 5%. For the same compound, the AChR sensor response turned out to be 29 K.OMEGA in assay [2] (agent 0.5 ug/ml), 33 K.OMEGA in assay [2] (agent 5 ug/ml), 35 K.OMEGA in assay [2] (agent 50 ug/ml) and 61 K.OMEGA in assay [2] (agent 500 ug/ml). Besides, the “change in resistance between control and AChR sensors (in words)” value in assay [2] (dose-response, Table 5) is reported as “no change”. Besides, the Control sensor response in assay [3] (agent 0.5 ug/ml) is on record as 28 K.OMEGA; in assay [3] (agent 5 ug/ml), 33 K.OMEGA; in assay [3] (agent 50 ug/ml) it was 33 K.OMEGA; in assay [3] (agent 500 ug/ml), 58 K.OMEGA.
“octylphenoxy polyethoxyethanol [Triton ™ X-100]”: the “% Activity Increase” value in assay [1] (detergent 0.1% by volume) was 12%; in assay [1] (detergent 0.5% by volume), 55%; in assay [1] (detergent 1.0% by volume), 85%; in assay [1] (detergent 2.0% by volume), 110%. For the same compound, the “stabilization of AChR activity in the membrane (in words)” value in assay [1] is “best stabilizing detergents”.
